Like-named read-outs stand apart in the source and are kept apart here.
Key:
BRD4(1) = BRD4(1) (Homo sapiens (Human), UniProt O60885); assay: AlphaScreen acetyl-histone binding assay, BRD4(1)
Procedure: (§1) The IC50 of the compounds were determined by ALPHASCREENING assays for BRD4 and BRDT proteins. NMC797 cell line is a BRD4 dependent NUT midline carcinoma line.
(§2) Acetyl-Histone Binding Assay. Assays were performed as described previously with minor modifications from the manufacturer's protocol (PerkinElmer, USA). All reagents were diluted in 50 mM HEPES, 100 mM NaCl, 0.1% BSA, pH 7.4 supplemented with 0.05% CHAPS and allowed to equilibrate to room temperature prior to addition to plates. A 24-point 1:2 serial dilution of the ligands was prepared over the range of 150-0 μM and 4 μl transferred to low-volume 384-well plates (ProxiPlate™-384 Plus, PerkinElmer, USA), followed by 4 μl of HIS-tagged protein (BRD4/1, 250 nM, BRD4/2 and CREBBP, 2000 nM). […] Plates were sealed and incubated for a further 30 minutes, before the addition of 4 μl of streptavidin-coated donor beads (25 μg/ml) and 4 μl nickel chelate acceptor beads (25 μg/ml) under low light conditions. Plates were foil-sealed to protect from light, incubated at room temperature for 60 minutes and read on a PHERAstar FS plate reader (BMG Labtech, Germany) using an AlphaScreen 680 excitation/570 emission filter set. IC50 values were calculated in Prism 5 (GraphPad Software, USA) after normalization against corresponding DMSO controls and are given as the final concentration of compound in the 20 μl reaction volume.

[1] = tested on: NMC797 cell line (BRD4 dependent NUT midline carcinoma line); assay: Cell proliferation assay (ATP content), NMC797; type: cell-based; settings: NMC797 cells, 48 h incubation
Procedure: as §1
Cell Proliferation Assay. Cells were seeded into white, 384-well microtiter plates (Nunc) at 500 cells per well in a total volume of 50 μL media. The 797, TT, and TE10 cells were grown in DMEM containing 1% penicillin/streptomycin and 10% FBS. The Per403 cells were grown in DMEM containing 1% penicillin/streptomycin and 20% FBS. Compounds were delivered to microtiter assay plates by robotic pin transfer (PerkinElmer JANUS equipped with a V&P Scientific 100 nL pin tool). Following a 48 h incubation at 37° C., cells were lysed and wells were assessed for total ATP content using a commercial proliferation assay (Cell TITERGLO; Promega). Replicate measurements were analyzed with respect to dose and estimates of IC50 were calculated by logistic regression ([…] PRISM).

BRDT(1) = BRDT(1) (Homo sapiens (Human), UniProt Q58F21); assay: AlphaScreen acetyl-histone binding assay, BRDT(1)
Procedure: as §1, §2

[2] = Pharmacokinetics in male CD1 mice, IV administration; type: in vivo, mouse; settings: IV 5 mg/kg, whole blood; for AUC(0-inf) / AUC(0-t) / MRT inf / clearance / half-life / Vd: mouse; for half-life: read-out: Terminal t1/2 (converted); for Vd: read-out: VSS
Procedure: (§3) Pharmacokinetic parameters were determined by administration of a candidate bromodomain inhibitor to male CD1 mice. Intravenous doses were delivered at 5 mg/kg, and oral doses at 10 mg/kg (N=3). […] The compound concentration in mouse blood was monitored over 24 hour time period to check the compound concentration in blood at 5 min, […], 1 h, 2 h, 6 h, 12, 24 h via a series bleeding.

[3] = Pharmacokinetics in male CD1 mice, oral administration; type: in vivo, mouse; settings: for half-life: read-out: Terminal t1/2 (converted); for F: oral 10 mg/kg vs IV 5 mg/kg
Procedure: as §3

[4] = mouse, oral 10 mg/kg, whole blood
[5] = mouse, oral 10 mg/kg, whole blood, read-out: Cmax
[6] = mouse, oral 10 mg/kg, whole blood, read-out: Tmax

| SMILES | IC50 (BRD4(1)) | IC50 ([1]; NMC-797) | IC50 (BRDT(1)) | further results |
| --- | --- | --- | --- | --- |
| Cc1sc2c(c1C)C(c1ccc(C#N)cc1)=N[C@@H](CC(=O)NCCCN1CCN(C)CC1)c1nnc(C)n1-2 [Compound 103] | 50 nM | 333 nM | 120 nM |  |
| Cc1sc2c(c1C)C(c1ccc(Cl)cc1)=N[C@@H](CC(=O)OC(C)(C)C)c1nnc(C)n1-2 [JQ1, reference compound] |  |  |  | IC50 [1]: 21 nM; AUCINF [2]: 2130 ng·h/mL; AUClast [2]: 2130 ng·h/mL; CL [2]: 2.35 L/h/kg; MRTINF [2]: 51.7 min; AUCINF ([3]; oral 10 mg/kg, whole blood): 2090 ng·h/mL; AUClast ([3]; oral 10 mg/kg, whole blood): 2040 ng·h/mL; Cmax ([3]; oral 10 mg/kg, whole blood): 1180 ng/mL; Tmax ([3]; oral 10 mg/kg, whole blood): 15 min |
| Cc1sc2c(c1C)C(c1ccc(C#N)cc1)=N[C@@H](CC(=O)NCC(F)F)c1nnc(C)n1-2 [Compound 109] | 37 nM | 70 nM | 142 nM | AUC(0-inf) [2]: 3510 ng·h/mL; AUC(0-t) [2]: 3500 ng·h/mL; MRT inf [2]: 49.7 min; clearance [2]: 23.7 mL/min/kg; half-life [2]: 66.6 min; Vd [2]: 1.18 L/kg; AUC(0-inf) [3, 4]: 3780 ng·h/mL; AUC(0-t) [3, 4]: 3630 ng·h/mL; Cmax [3, 5]: 1210 ng/mL; half-life [3, 4]: 101 min; Tmax [3, 6]: 40 min; F [3]: 53.8% |
| Cc1c(CC#N)sc2c1C(c1ccc(Cl)cc1)=N[C@@H](CC(=O)NCCO)c1nnc(C)n1-2 [Compound 206] | 197 nM | 9630 nM | 642 nM |  |
| Cc1sc2c(c1C)C(c1ccc(C#N)cc1)=N[C@@H](CC(=O)NCCN1CCOCC1)c1nnc(C)n1-2 [Compound 104] | 53 nM | 183 nM | 216 nM |  |
| Cc1c(CC#N)sc2c1C(c1ccc(Cl)cc1)=N[C@@H](CC(=O)NC[C@@H](C)O)c1nnc(C)n1-2 [Compound 208] | 415 nM | 6100 nM | 1200 nM |  |
| Cc1c(CC#N)sc2c1C(c1ccc(Cl)cc1)=N[C@@H](CC(=O)NCCN1CCOCC1)c1nnc(C)n1-2 [Compound 204] | 300 nM | 3460 nM |  |  |
| Cc1c(CC#N)sc2c1C(c1ccc(Cl)cc1)=N[C@@H](CC(N)=O)c1nnc(C)n1-2 [Compound 205] | 206 nM | 903 nM | 612 nM |  |
| CCNC(=O)C[C@@H]1N=C(c2ccc(Cl)cc2)c2c(sc(CC#N)c2C)-n2c(C)nnc21 [Compound 202] | 310 nM | 1130 nM |  |  |
| Cc1c(CC#N)sc2c1C(c1ccc(Cl)cc1)=N[C@@H](CC(=O)Nc1ccc(O)cc1)c1nnc(C)n1-2 [Compound 201] | 175 nM | 1900 nM |  |  |
| Cc1sc2c(c1C)C(c1ccc(C#N)cc1)=N[C@@H](CC(=O)NCCO)c1nnc(C)n1-2 [Compound 106] | 33 nM | 328 nM | 105 nM |  |
| Cc1sc2c(c1C)C(c1ccc(C#N)cc1)=N[C@@H](CC(=O)NCC(F)(F)F)c1nnc(C)n1-2 [Compound 111] | 117 nM | 125 nM |  |  |
| COC(=O)C[C@@H]1N=C(c2ccc(Cl)cc2)c2c(sc(CC#N)c2C)-n2c(C)nnc21 [Compound 200] | 48 nM | 52 nM | 132 nM | AUC(0-inf) [2]: 4050 ng·h/mL; AUC(0-t) [2]: 4000 ng·h/mL; MRT inf [2]: 76.8 min; clearance [2]: 20.8 mL/min/kg; half-life [2]: 82.8 min; Vd [2]: 1.57 L/kg; AUC(0-inf) [3, 4]: 6040 ng·h/mL; AUC(0-t) [3, 4]: 5520 ng·h/mL; Cmax [3, 5]: 1500 ng/mL; half-life [3, 4]: 118 min; Tmax [3, 6]: 30 min; F [3]: 72.4% |
| Cc1sc2c(c1C)C(c1ccc(C#N)cc1)=N[C@@H](CC(=O)Nc1ccc(O)cc1)c1nnc(C)n1-2 [Compound 101] | 79 nM | 133 nM | 120 nM |  |
| Cc1sc2c(c1C)C(c1ccc(C#N)cc1)=N[C@@H](CC(N)=O)c1nnc(C)n1-2 [Compound 105] | 174 nM | 366 nM | 565 nM |  |
| Cc1c(CC#N)sc2c1C(c1ccc(Cl)cc1)=N[C@@H](CC(=O)N1CCOCC1)c1nnc(C)n1-2 [Compound 210] | 466 nM | 118 nM | 1420 nM |  |
| Cc1c(CC#N)sc2c1C(c1ccc(Cl)cc1)=N[C@@H](CC(=O)NC[C@H](C)O)c1nnc(C)n1-2 [Compound 207] | 623 nM | 4250 nM |  |  |
| Cc1c(CC#N)sc2c1C(c1ccc(Cl)cc1)=N[C@@H](CC(=O)NCC(F)F)c1nnc(C)n1-2 [Compound 209] | 386 nM | 912 nM |  |  |
| COC(=O)C[C@@H]1N=C(c2ccc(Cl)cc2)c2c(sc(CNS(=O)(=O)c3ccccc3)c2C)-n2c(C)nnc21 [Compound 300] | 16 nM | 61 nM | 60 nM |  |
| Cc1sc2c(c1C)C(c1ccc(C#N)cc1)=N[C@@H](CC(=O)NC[C@@H](C)O)c1nnc(C)n1-2 [Compound 108] | 52 nM | 258 nM | 133 nM |  |
| Cc1c(CC#N)sc2c1C(c1ccc(Cl)cc1)=N[C@@H](CC(=O)NCCCN1CCN(C)CC1)c1nnc(C)n1-2 [Compound 203] | 134 nM | 6790 nM |  |  |
| CCNC(=O)C[C@@H]1N=C(c2ccc(C#N)cc2)c2c(sc(C)c2C)-n2c(C)nnc21 [Compound 102] | 120 nM | 275 nM | 458 nM |  |
| Cc1sc2c(c1C)C(c1ccc(C#N)cc1)=N[C@@H](CC(=O)NC[C@H](C)O)c1nnc(C)n1-2 [Compound 107] | 61 nM | 107 nM | 187 nM | AUC(0-inf) [2]: 2920 ng·h/mL; AUC(0-t) [2]: 2920 ng·h/mL; MRT inf [2]: 20.2 min; clearance [2]: 29.3 mL/min/kg; half-life [2]: 24.7 min; Vd [2]: 0.583 L/kg; AUC(0-inf) [3, 4]: 532 ng·h/mL; AUC(0-t) [3, 4]: 512 ng·h/mL; Cmax [3, 5]: 319 ng/mL; half-life [3, 4]: 97.2 min; Tmax [3, 6]: 30 min; F [3]: 9.10% |
| Cc1sc2c(c1C)C(c1ccc(C#N)cc1)=N[C@@H](CC(=O)OC(C)(C)C)c1nnc(C)n1-2 [Compound 100] |  | 185 nM |  |  |
| Cc1sc2c(c1C)C(c1ccc(C#N)cc1)=N[C@@H](CC(=O)N1CCOCC1)c1nnc(C)n1-2 [Compound 110] | 89 nM | 116 nM | 197 nM |  |

Source: patent US11306105B2, “Cyano thienotriazolodiazepines and uses thereof” (Dana-Farber Cancer Institute, Inc., priority 2015, dated 2022)
